# Source: paper PMC1968196, “Effect of anthracycline analogs on photolabelling of p-glycoprotein by [125I]iodomycin and [3H]azidopine: relation to lipophilicity and inhibition of daunorubicin transport in multidrug resistant cells” (British Journal of Cancer, 1993)
# Values joined by “and” are separate entries in the source; they are usually repeats but may differ in a detail not shown here. Equal values may be shown once. Read-outs that look alike come from different tables or passages of the source.
# Assays:
# P-glycoprotein [1] = experiment: [125I]iodomycin photolabelling of Pgp in EHR2/DNR+ cells; type: binding, mice
# Source text: (§1) Br. J. Cancer (1993), 67, 226 231 ? Macmillan Press Ltd., 1993 Effect of anthracycline analogs on photolabelling of p-glycoprotein by I'25 liodomycin and [3Hlazidopine: Relation to lipophilicity and inhibition of daunorubicin transport in multidrug resistant cells E. Frichel*, E.J.F. Demant2, M. Sehested3 & N.I. Nissen' 'Department of Medicine and Hematology, L 4042, Rigshospitalet-University Hospital, 9, Blegdamsvej, DK-2100 Copenhagen; 2Department of Biochemistry C, The Panum Institute, University of Copenhagen, DK-2200 Copenhagen; 3Department of Pathology, Sundby Hospital, DK-2300 Copenhagen, Denmark. […] We photoaffinity labelled P-glycoprotein in daunorubicin (DNR) resistant Ehrlich ascites tumour cells (EHR2/DNR + ) with a ['25I]iodinated Bolton-Hunter derivative of daunorubicin ([1251]iodomycin) and with [3H]azidopine. […] Anthracyclines are among the most valuable cytostatic agents in clinical use. Their usefulness is, however, limited by the occurrence of tumour cells with the multidrug resistance (MDR) phenotype (Beck, 1987; Bliek & Borst, 1989; Endicott & Ling, 1989; Kaye & Merry, 1985; Moscow & Cowan, 1988). MDR cells have an enhanced amount of a 150- 170 kDa plasma membrane glycoprotein, P-glycoprotein (Pgp) (Kartner et al., 1983 and 1985; Cornwell et al., 1986; Bradley et al., 1988; Beck, 1991a; Roninson, 1991), that may function as a low-specificity transport protein to facilitate the outward transport of cytotoxic agents including the anthracyclines. Thus, increased drug efflux and therefore decreased accumulation is seen in MDR cells not only to the drug for which resistance is developed but also to a wide spectrum of chemically unrelated cytostatics (Bradley et al., 1988; Fojo et al., 1985). […] The aim of this study was to examine these analogs for their ability to com- pete for ligand binding to Pgp and thus service as inhibitors for the outward drug transport system in MDR cells. Anthracycline inter-actions with Pgp were assessed using the specific photolabelling of the protein with [251I]iodomycin, a ['251]iodinated Bolton-Hunter derivative of DNR (Busche et al., 1989a) and with [3H]azidopine ([3H]AZP) which photolabels Pgp in plasma membrane vesicles from EHR2/ DNR + cells (Sehested et al., 1990) as well as in whole cells (Safa et al., 1987; Friche et al., 1990c). […] Material and methods Chemicals Duanorubicin (DNR); AdriamycinR (Doxorubicin/HCl, DOX); 4'-deoxy-4'-iododoxorubicin (DIDOX); and 4- demethoxy-DNR were kindly supplied from Farmitalia, Carlo Erba (Milan, Italy). N,N-dibenzyl-DNR was a gift from Dr Nicholas Bachur, (Baltimore, MD) and N- benzyladriamycin-14-valerate (AD 198) a gift from Professor M. Israel (Memphis, TN). Mitoxantrone was purchased from Lederle (New Jersey, USA), Aclacinomycin A from Lund- beck & Co A/S (Copenhagen, Denmark), OncovinR (Vincristine/HCl, VCR) from Eli Lilly Deutschland GMBH (Giessen, Germany), Cremophor EL from BASF Aktiengesellschaft (Ludwigshafen, Germany), and Tween 80 from the Sigma Chemical Co. (St. Louis, MO). ['251]-Bolton- Hunter reagent (2000 Ci mmol 1), [3H]AZP (42 Ci mmol- ') and non-radioactive AZP were purchased from Amersham International (Amersham, UK). All other chemicals were of analytical grade. Organic solvents were distilled prior to use. Triethylamine was distilled over ninhydrin and anhydrous methanol was stored over molecular sieve (3 A). Tumour cells Cells were either the wild-type Ehrlich ascites tumor line (EHR2) or the corresponding DNR-resistant line (EHR2/ DNR + ) (Dan0, 1971) displaying both the MDR phenotype (Sehested et al., 1990) and as recently shown, decreased Correspondence: E. Friche. Received 22 April 1992; and in revised form 21 September 1992.
# P-glycoprotein [2] = experiment: [3H]azidopine photolabelling of Pgp in EHR2/DNR+ cells; type: binding, mice; conditions: [3H]AZP 0.4 µM
# Source text: as §1
# [3] = pH 7.45
# Source text: as §1
# EHR2/DNR+ cells [4] = experiment: Modulating effect on steady-state DNR accumulation in EHR2/DNR+ cells; type: cell-based, mice; conditions: equimolar concentrations (5 µM)
# Source text: (§2) Br. J. Cancer (1993), 67, 226 231 ? Macmillan Press Ltd., 1993 Effect of anthracycline analogs on photolabelling of p-glycoprotein by I'25 liodomycin and [3Hlazidopine: Relation to lipophilicity and inhibition of daunorubicin transport in multidrug resistant cells E. Frichel*, E.J.F. Demant2, M. Sehested3 & N.I. Nissen' 'Department of Medicine and Hematology, L 4042, Rigshospitalet-University Hospital, 9, Blegdamsvej, DK-2100 Copenhagen; 2Department of Biochemistry C, The Panum Institute, University of Copenhagen, DK-2200 Copenhagen; 3Department of Pathology, Sundby Hospital, DK-2300 Copenhagen, Denmark. […] We photoaffinity labelled P-glycoprotein in daunorubicin (DNR) resistant Ehrlich ascites tumour cells (EHR2/DNR + ) with a ['25I]iodinated Bolton-Hunter derivative of daunorubicin ([1251]iodomycin) and with [3H]azidopine. […] Anthracyclines are among the most valuable cytostatic agents in clinical use. […] Anthracycline inter-actions with Pgp were assessed using the specific photolabelling of the protein with [251I]iodomycin, a ['251]iodinated Bolton-Hunter derivative of DNR (Busche et al., 1989a) and with [3H]azidopine ([3H]AZP) which photolabels Pgp in plasma membrane vesicles from EHR2/ DNR + cells (Sehested et al., 1990) as well as in whole cells (Safa et al., 1987; Friche et al., 1990c). […]
# Pgp = conditions: read-out: Kd for binding to Pgp, cited from earlier work
# EHR2/DNR+ cells [5] = conditions: ref Friche et al., 1990b; Arcamone, 1985; cited from earlier work
# EHR2/DNR+ cells [6] = experiment: Steady-state drug accumulation in EHR2 and EHR2/DNR+ cells; type: cell-based, mice
# Source text: as §2, with “use. Their usefulness is, however, limited by the occurrence of tumour cells with the multidrug resistance (MDR) phenotype (Beck, 1987; Bliek & Borst, 1989; Endicott & Ling, 1989; Kaye & Merry, 1985; Moscow & Cowan, 1988). MDR cells have an enhanced amount of a 150- 170 kDa plasma membrane glycoprotein, P-glycoprotein (Pgp) (Kartner et al., 1983 and 1985; Cornwell et al., 1986; Bradley et al., 1988; Beck, 1991a; Roninson, 1991), that may function as a low-specificity transport protein to facilitate the outward transport of cytotoxic agents including the anthracyclines.” for “use.”
# [7] = 10 µM drug (1000-fold molar excess), iodomycin 10 nM, 30 min 37°C
# [8] = 40 µM drug (100-fold molar excess)
# [9] = 5 µM modulator (500-fold molar excess)
SMILES,Per cent inhibition of [125I]iodomycin photolabelling of Pgp (P-glycoprotein [1]; [7]),"Per cent inhibition of [125I]iodomycin photolabelling of Pgp (P-glycoprotein [1]; 20 µM drug, iodomycin 10 nM) [%]","Per cent inhibition of [125I]iodomycin photolabelling of Pgp (P-glycoprotein [1]; 40 µM drug, iodomycin 10 nM) [%]",Per cent inhibition of [3H]AZP photolabelling of Pgp (P-glycoprotein [2]; 10 µM drug) [%],Per cent inhibition of [3H]AZP photolabelling of Pgp (P-glycoprotein [2]; 20 µM drug) [%],Per cent inhibition of [3H]AZP photolabelling of Pgp (P-glycoprotein [2]; [8]) [%],"Lipid solubility (O/W), octanol/water partition coefficient [3]",other results
CC(=O)[C@]1(O)Cc2c(O)c3c(c(O)c2[C@@H](O[C@H]2C[C@H](N)[C@H](O)[C@H](C)O2)C1)C(=O)c1ccccc1C3=O [4-demethoxy-daunorubicin],35.9%,52.2,58.3,1.5,3.6,19.8,13.08,–
"CCCCC(=O)OCC(=O)[C@]1(O)Cc2c(O)c3c(c(O)c2[C@@H](O[C@H]2C[C@H](NCc4ccccc4)[C@H](O)[C@H](C)O2)C1)C(=O)c1c(OC)cccc1C3=O [AD-198, N-benzyladriamycin-14-valerate]",85%,95.8,> 99,74.1,81.7,90.9,> 200,"Per cent inhibition of [3H]AZP photolabelling of Pgp (P-glycoprotein [2]; 40 µM drug (100-fold molar excess), listed as Ad-198): about 90%"
CC[C@@]1(O)C[C@H](O[C@H]2C[C@H](N(C)C)[C@H](O[C@H]3C[C@H](O)[C@H](O[C@H]4CCC(=O)[C@H](C)O4)[C@H](C)O3)[C@H](C)O2)c2c(cc3c(c2O)C(=O)c2c(O)cccc2C3=O)[C@H]1C(=O)OC [Aclacinomycin A],22.6%,52.0,75.3,65.3,74.7,85.7,–,Effect on accumulation of DNR (EHR2/DNR+ cells [4]): did increase accumulation of DNR the most
CCOC(=O)C1=C(C)NC(C)=C(C(=O)OCCNC(=O)c2ccc(N=[N+]=[N-])cc2)C1c1ccccc1C(F)(F)F (stereo not drawn) [Azidopine],67.9%,–,–,–,–,–,–,"Per cent inhibition of [125I]iodomycin photolabelling of Pgp (P-glycoprotein [1]; 1 µM modulator): 6.7%; Per cent inhibition of [125I]iodomycin photolabelling of Pgp (P-glycoprotein [1]; 1 µM modulator, listed as AZP): hardly inhibited; Per cent inhibition of [125I]iodomycin photolabelling of Pgp (P-glycoprotein [1]; [9]): 50.0%; Per cent inhibition of [125I]iodomycin photolabelling of Pgp (P-glycoprotein [1]; 5 µM modulator (500-fold molar excess), listed as AZP): 50%; Kd (Pgp; ref Safa et al., 1987): 1000 nM"
"COc1cccc2c1C(=O)c1c(O)c3c(c(O)c1C2=O)C[C@@](O)(C(=O)CO)C[C@@H]3O[C@H]1C[C@H](N)[C@H](I)[C@H](C)O1 [DIDOX, 4'-deoxy-4'-iododoxorubicin]",20.6%,17.5,22.5,0,0,19.7,14.51,Effect on accumulation of DNR (EHR2/DNR+ cells [5]): did not increase DNR accumulation
O=C1c2c(O)ccc(O)c2C(=O)c2c(NCCNCCO)ccc(NCCNCCO)c21 [Mitoxantrone],42.9%,56.9,58.8,7.5,15.6,19.5,5.06,–
"COc1cccc2c1C(=O)c1c(O)c3c(c(O)c1C2=O)C[C@@](O)(C(C)=O)C[C@@H]3OC1CC(N(Cc2ccccc2)Cc2ccccc2)C(O)C(C)O1.Cl (stereo partly drawn) [N,N,-dibenzyl-daunorubicin]",52.4%,97.3,> 99,75.2,87.1,90.5,> 200,"Per cent inhibition of [125I]iodomycin photolabelling of Pgp (P-glycoprotein [1]; 20 µM drug, iodomycin 10 nM, listed as N,N-dibenzyl-DNR): 97%; Per cent inhibition of [3H]AZP photolabelling of Pgp (P-glycoprotein [2]; 40 µM drug (100-fold molar excess), listed as N,N-dibenzyl-DNR): about 90%; Effect on accumulation of DNR (EHR2/DNR+ cells [4]): did increase accumulation of DNR the most"
CC[C@]1(O)C[C@H]2CN(CCc3c([nH]c4ccccc34)[C@@](C(=O)OC)(c3cc4c(cc3OC)N(C=O)[C@H]3[C@@](O)(C(=O)OC)[C@H](OC(C)=O)[C@]5(CC)C=CCN6CC[C@]43[C@@H]65)C2)C1 [Vincristine],95% and 94.3%,–,–,–,–,–,1.98,"Per cent inhibition of [125I]iodomycin photolabelling of Pgp (P-glycoprotein [1]; 1 µM modulator): 53.1%; Per cent inhibition of [125I]iodomycin photolabelling of Pgp (P-glycoprotein [1]; 1 µM modulator, listed as VCR): about 50%; Per cent inhibition of [125I]iodomycin photolabelling of Pgp (P-glycoprotein [1]; [9]): 78.6%; Per cent inhibition of [125I]iodomycin photolabelling of Pgp (P-glycoprotein [1]; 10 µM drug (1000-fold molar excess), iodomycin 10 nM, 30 min 37°C, listed as VCR): almost completely blocked"
COc1cccc2c1C(=O)c1c(O)c3c(c(O)c1C2=O)CC(O)(C(C)=O)CC3OC1CC(NC(=O)CCc2ccc(O)c(I)c2)C(O)C(C)O1 (stereo not drawn) [[125I]iodomycin],–,–,–,–,–,–,–,"Reduced steady-state accumulation in EHR2/DNR+ relative to EHR2 (EHR2/DNR+ cells [6]): ~5 fold; Steady-state accumulation (EHR2/DNR+ cells [6]; EHR2/DNR+ cells): 42 fmol 10-6 cells; Steady-state accumulation (EHR2/DNR+ cells [6]; EHR2 cells (wild type)): 207 fmol 10-6 cells; Kd (Pgp; ref Busche et al., 1989b): 25 nM"
